Measured values reported in PMC7073924, “2-Aminomethylene-5-sulfonylthiazole Inhibitors of Lysyl Oxidase (LOX) and LOXL2 Show Significant Efficacy in Delaying Tumor Growth” (Journal of Medicinal Chemistry, 2019).
pIC50: −log10 of the molar value. Several values for one entry are separate records, joined by “and”; a condition that tells them apart may be missing. Equal entries are not always repeated. Structures can show the parent of a compound that is named as a salt. Where two headings read alike, the source gives them in different places.

What was measured:
[1] = molecular target: T1, LOXL3 (Homo sapiens, UniProt P58215); assay: LOXL3 enzyme assay (Promega ROS-Glo, cadaverine substrate); assay type: biochemical
T1 sequence (P58215 26-753): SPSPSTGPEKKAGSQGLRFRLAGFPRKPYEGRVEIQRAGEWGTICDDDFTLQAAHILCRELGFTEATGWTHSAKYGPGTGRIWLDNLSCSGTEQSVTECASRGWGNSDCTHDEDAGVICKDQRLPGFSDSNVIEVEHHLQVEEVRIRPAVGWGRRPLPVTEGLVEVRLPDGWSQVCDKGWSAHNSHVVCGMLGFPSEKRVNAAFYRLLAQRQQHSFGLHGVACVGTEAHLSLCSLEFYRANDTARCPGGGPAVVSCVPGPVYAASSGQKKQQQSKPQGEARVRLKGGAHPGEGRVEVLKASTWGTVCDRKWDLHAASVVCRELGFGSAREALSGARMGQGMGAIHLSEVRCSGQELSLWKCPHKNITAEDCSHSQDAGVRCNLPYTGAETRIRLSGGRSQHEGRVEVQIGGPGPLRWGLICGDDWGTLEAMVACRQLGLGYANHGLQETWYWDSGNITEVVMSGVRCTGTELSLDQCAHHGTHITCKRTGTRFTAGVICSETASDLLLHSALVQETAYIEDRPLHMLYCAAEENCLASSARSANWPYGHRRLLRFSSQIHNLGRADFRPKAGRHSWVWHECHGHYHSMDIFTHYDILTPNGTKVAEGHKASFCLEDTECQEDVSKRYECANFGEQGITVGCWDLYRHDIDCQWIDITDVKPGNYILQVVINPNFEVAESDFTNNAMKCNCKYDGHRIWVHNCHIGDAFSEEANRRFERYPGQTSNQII
Description: (§1) LOXL2 and LOXL3 were purchased from R&D Systems. LOX, LOXL2, and LOXL3 catalytic activity were determined using the Promega ROS-Glo assay kit with cadaverine dihydrochloride as substrate, BAPN as the reference inhibitor control, a preincubation time of 20 min, 1 h, or 3 h, with nine dilutions from a top concentration of 10 μM or 100 μM.

[2] = molecular target: T2, LOXL2 (Homo sapiens, UniProt Q9Y4K0); assay: LOXL2 enzyme assay (Promega ROS-Glo, cadaverine substrate); assay type: biochemical; set-up: Activity (LOXL2 activity used in the RVM model data matrix): unit not given here
T2 sequence (Q9Y4K0 26-774): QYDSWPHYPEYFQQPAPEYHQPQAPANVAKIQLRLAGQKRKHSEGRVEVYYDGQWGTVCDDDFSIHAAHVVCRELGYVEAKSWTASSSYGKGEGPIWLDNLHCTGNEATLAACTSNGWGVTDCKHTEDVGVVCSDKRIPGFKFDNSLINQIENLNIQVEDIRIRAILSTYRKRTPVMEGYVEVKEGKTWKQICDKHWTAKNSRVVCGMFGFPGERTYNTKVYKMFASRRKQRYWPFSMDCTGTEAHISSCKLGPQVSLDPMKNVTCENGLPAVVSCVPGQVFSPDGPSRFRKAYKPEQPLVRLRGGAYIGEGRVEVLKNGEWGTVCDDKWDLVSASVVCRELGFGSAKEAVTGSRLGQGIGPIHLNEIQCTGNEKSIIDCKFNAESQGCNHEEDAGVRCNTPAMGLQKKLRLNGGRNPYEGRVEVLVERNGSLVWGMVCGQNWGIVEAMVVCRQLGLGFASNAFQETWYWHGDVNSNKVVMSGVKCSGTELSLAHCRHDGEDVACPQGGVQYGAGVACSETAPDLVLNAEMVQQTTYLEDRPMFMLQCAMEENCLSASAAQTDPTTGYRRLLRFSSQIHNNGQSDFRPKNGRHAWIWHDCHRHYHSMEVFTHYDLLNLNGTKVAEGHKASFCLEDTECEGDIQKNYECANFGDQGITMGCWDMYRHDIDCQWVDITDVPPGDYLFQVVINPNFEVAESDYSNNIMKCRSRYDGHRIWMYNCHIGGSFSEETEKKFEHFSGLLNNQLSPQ

[3] = molecular target: T3, SSAO (Homo sapiens, UniProt Q16853); assay type: biochemical
T3 construct: purchased Sigma
T3 sequence (Q16853 1-763): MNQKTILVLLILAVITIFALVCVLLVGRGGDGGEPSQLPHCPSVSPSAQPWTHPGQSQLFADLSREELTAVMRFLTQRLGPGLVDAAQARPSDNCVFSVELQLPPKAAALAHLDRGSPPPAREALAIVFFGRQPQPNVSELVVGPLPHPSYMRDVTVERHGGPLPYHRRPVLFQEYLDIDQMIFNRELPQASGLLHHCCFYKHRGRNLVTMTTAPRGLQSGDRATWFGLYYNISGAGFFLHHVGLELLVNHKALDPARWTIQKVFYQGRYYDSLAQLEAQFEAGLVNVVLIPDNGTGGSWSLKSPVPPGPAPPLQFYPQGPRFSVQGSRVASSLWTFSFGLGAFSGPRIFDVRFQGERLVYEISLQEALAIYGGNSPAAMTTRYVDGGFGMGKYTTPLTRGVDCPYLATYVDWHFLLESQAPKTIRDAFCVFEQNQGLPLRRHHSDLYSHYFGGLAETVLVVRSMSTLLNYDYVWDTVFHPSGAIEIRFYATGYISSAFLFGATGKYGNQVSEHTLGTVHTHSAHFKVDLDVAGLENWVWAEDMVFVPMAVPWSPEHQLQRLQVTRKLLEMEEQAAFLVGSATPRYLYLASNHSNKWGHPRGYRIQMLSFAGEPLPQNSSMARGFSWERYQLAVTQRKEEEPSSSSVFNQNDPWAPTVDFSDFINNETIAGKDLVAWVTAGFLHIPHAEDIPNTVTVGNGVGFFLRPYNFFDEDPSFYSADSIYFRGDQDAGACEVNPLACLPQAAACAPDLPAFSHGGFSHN
Description: All amine oxidase assays were performed with concentrations as above. MAO-A and MAO-B enzymes were purchased from Sigma. The catalytic activity of MAO-A and MAO-B was determined using the Promega MAO-Glo assay kit (substrate included), with clorgyline and deprenyl as reference inhibitor controls, respectively. DAO was purchased from Sigma, and the catalytic activity was determined using the Promega ROS-Glo assay kit, with aminoguanidine as the reference inhibitor control. SSAO was purchased from Sigma. SSAO catalytic activity was determined using the Promega MAO-Glo assay kit, with mofegiline as the reference inhibitor control.

[4] = molecular target: T4, LOX (Sus scrofa, UniProt P45845); assay: LOX enzyme assay (Promega ROS-Glo, cadaverine substrate); assay type: biochemical, pig; conditions: Table 6; 1 h preincubation
T4 sequence (P45845 1-249): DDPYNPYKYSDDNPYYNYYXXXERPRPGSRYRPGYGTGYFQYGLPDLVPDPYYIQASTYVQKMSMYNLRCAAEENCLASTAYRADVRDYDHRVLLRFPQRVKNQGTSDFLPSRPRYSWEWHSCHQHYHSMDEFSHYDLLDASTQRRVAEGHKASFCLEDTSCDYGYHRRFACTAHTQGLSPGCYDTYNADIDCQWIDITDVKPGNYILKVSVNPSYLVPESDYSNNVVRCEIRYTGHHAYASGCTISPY
Description: as §1

`CS(=O)(=O)c1cc(-c2ccccc2)cc(S(=O)(=O)c2ccc(CN)s2)c1` [Compound 3a] was tested, and the pIC50 [1] was 4.87 and 4.73.

In the case of `NCc1ccc(S(=O)(=O)c2ccc3ccccc3c2)s1` [Compound 4], the “increase in LOXL2 potency on increasing preincubation from 20 min to 1 h” value [2] was at most 5 fold.

In the case of `NCc1ncc(S(=O)(=O)c2ccc3ccccc3c2)s1` [Compound 6], the pIC50 [3] was 4.33.

In the case of `CNCc1ncc(S(=O)(=O)c2cc(-c3ccccc3)cc(S(C)(=O)=O)c2)s1` [Compound 7b, N-Methyl-1-(5-((5-(methylsulfonyl)-[1,1′-biphenyl]-3-yl)sulfonyl)thiazol-2-yl)methanamine Hydrochloride], the pIC50 ([2]; read-out: LOXL2, IC50) was 4.17.

In the case of `CS(=O)(=O)c1cc(-c2ccccc2)cc([S+]([O-])c2cnc(CN)s2)c1` (stereo not drawn) [Compound 7c, (5-((5-(Methylsulfonyl)-[1,1′-biphenyl]-3-yl)sulfinyl)thiazol-2-yl)methanamine Hydrochloride], the pIC50 ([2]; read-out: LOXL2 IC50) was 6.61 and 6.63.

With `CS(=O)(=O)c1cc(Sc2cnc(CN)s2)cc(-c2ccccc2)c1` [Compound 7d, (5-((5-(Methylsulfonyl)-[1,1′-biphenyl]-3-yl)thio)thiazol-2-yl)methanamine Hydrochloride] the pIC50 ([2]; read-out: LOXL2 IC50) was 6.63 and the pIC50 [4] was 5.88 and 5.95.

`CCCS(=O)(=O)c1cnc(CN)s1` [Compound 10, (5-(Propylsulfonyl)thiazol-2-yl)methanamine Hydrochloride] was tested, and the “Activity (LOXL2 activity used in the RVM model data matrix)” value [2] was 6.24 and the pIC50 ([2]; Table 3, 1 h preincubation, read-out: LOXL2 IC50) was 6.26 and 6.23.

`CS(=O)(=O)c1cccc(S(=O)(=O)c2cnc(CN)s2)c1` [Compound 13, (5-((3-(Methylsulfonyl)phenyl)sulfonyl)thiazol-2-yl)methanamine Hydrochloride] was tested, and the pIC50 ([2]; read-out: LOXL2 IC50) was 6.74 and 6.61.

With `CS(=O)(=O)c1cccc(-c2cnc(CN)s2)c1` [Compound 14, (5-(3-(Methylsulfonyl)phenyl)thiazol-2-yl)methanamine Hydrochloride] the pIC50 ([2]; read-out: LOXL2 IC50) was 6.38 and 6.40.

With `NCc1ncc(-c2cccc(-c3ccccc3)c2)s1` [Compound 16, (5-([1,1′-Biphenyl]-3-yl)thiazol-2-yl)methanamine Hydrochloride] the pIC50 ([2]; read-out: LOXL2 IC50) was 5.76 and 5.80.

In the case of `CS(=O)(=O)c1cc(-c2ccccc2)cc(-c2cnc(CN)s2)c1` [Compound 17, (5-(5-(Methylsulfonyl)-[1,1′-biphenyl]-3-yl)thiazol-2-yl)methanamine Hydrochloride], the “Activity (LOXL2 activity used in the RVM model data matrix)” value [2] was 6.16, the pIC50 ([2]; read-out: LOXL2 IC50) was 6.19 and 6.15 and the pIC50 [4] was 4.28 and 4.33.

In the case of `Cc1ccc(-c2cc(S(C)(=O)=O)cc(S(=O)(=O)c3cnc(CN)s3)c2)cc1` [Compound 18, (5-((4′-Methyl-5-(methylsulfonyl)-[1,1′-biphenyl]-3-yl)sulfonyl)thiazol-2-yl)methanamine Hydrochloride], the pIC50 [3] was 5.57 and 5.89.

`Cn1cc(-c2cc(Cl)cc(S(=O)(=O)c3cnc(CN)s3)c2)cn1` [Compound 21d, (5-((3-Chloro-5-(1-methyl-1H-pyrazol-4-yl)phenyl)sulfonyl)thiazol-2-yl)methanamine Hydrochloride] showed an IC50 ([2]; Activity column of RVM_model_LOXL2.csv, Type = Data matrix, input activity for the RVM model of LOXL2, read-out: Activity (LOXL2 activity used in the RVM model data matrix) (converted)) of 309 nM and a pIC50 ([2]; read-out: LOXL2 IC50) of 6.55.
